Experimental data published in ChEMBL document CHEMBL1153618, “Discovery of potential new InhA direct inhibitors based on pharmacophore and 3D-QSAR analysis followed by in silico screening” (Eur J Med Chem, 2009).

target: T1, Enoyl-[acyl-carrier-protein] reductase [NADH] (Mycobacterium tuberculosis, UniProt P9WGR1); experiment: Inhibition of Mycobacterium tuberculosis InhA
T1 sequence (P9WGR1 whole entry): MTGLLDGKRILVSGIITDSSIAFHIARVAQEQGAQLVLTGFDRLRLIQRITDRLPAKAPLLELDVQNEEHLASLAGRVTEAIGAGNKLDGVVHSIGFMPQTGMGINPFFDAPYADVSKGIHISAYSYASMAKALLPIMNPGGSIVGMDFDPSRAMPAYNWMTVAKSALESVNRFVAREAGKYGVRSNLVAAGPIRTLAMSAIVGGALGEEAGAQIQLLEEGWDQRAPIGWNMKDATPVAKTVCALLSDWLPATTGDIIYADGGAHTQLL

Compound | IC50
COc1ccc(OC)c(/C=N/NC2=CS(=O)(=O)c3ccccc32)c1 | 5.13 µM
COc1ccc(/C=C2\SC(N3CCCCCC3)NC2=O)cc1OC (stereo not given) | 11 µM
COc1cc(Cl)ccc1NC(=O)c1ccc(C)c([N+](=O)[O-])c1 | 5.01 µM
Cc1cc(Cl)ccc1OCC(=O)Nc1cccc([N+](=O)[O-])c1C | 3.47 µM
Cc1ccc(OC(=O)c2ccccc2[N+](=O)[O-])c(Br)c1 | 9.55 µM
COc1ccc(Cl)cc1NC(=O)c1ccc(OC)c([N+](=O)[O-])c1 | 5.01 µM
COc1ccc(Cl)cc1NC(=O)c1ccc(Cl)c([N+](=O)[O-])c1 | 4.07 µM
CCN(CC)c1ccc(/C=C2/SC(N3CCCCC3)=NC2=O)cc1 | 6.17 µM
Cc1ccc(NC(=O)c2sc3ccccc3c2Cl)cc1[N+](=O)[O-] | 2.14 µM
Cc1ccc(C(=O)Nc2ccc(Cl)cc2Cl)cc1[N+](=O)[O-] | 8.71 µM
CCN(CC)c1ccc(NC(=O)c2ccccc2[N+](=O)[O-])cc1 | 4.37 µM
O=[N+]([O-])c1cc(/N=C/c2ccc(Cl)cc2Cl)ccc1Cl | 4.68 µM
CCOC(=O)C1=C(C)N/C(=C/c2cc(OC)ccc2OC)C1=O | 3.63 µM
COc1ccc(/C=C2/SC(N3CCC(C)CC3)=NC2=O)cc1OC | 10.7 µM
COc1ccc(C(=O)Nc2cc(Cl)ccc2Cl)cc1[N+](=O)[O-] | 13.8 µM
O=C(Nc1ccc(Cl)cc1Cl)c1ccccc1[N+](=O)[O-] | 20 µM
CCN(CC)c1ccc(/C=C2/N=C(c3ccccc3)OC2=O)cc1 | 3.31 µM
COc1cc(NC(=O)c2ccc(C)cc2[N+](=O)[O-])cc(OC)c1 | 1.35 µM
O=C1N=C(Nc2cc(Cl)cc(Cl)c2)S/C1=C/c1ccco1 | 17.8 µM
Cc1ccc(NC(=O)c2ccccc2[N+](=O)[O-])c(C)c1 | 10.5 µM
O=C(Nc1cc(Cl)ccc1Cl)c1ccc(Cl)c([N+](=O)[O-])c1 | 20 µM
O=C(Nc1ccc(Cl)c(Cl)c1)c1ccc(Cl)c([N+](=O)[O-])c1 | 52.5 µM
COc1cc(Cl)cc(/C=C2/SC(c3ccccc3)=NC2=O)c1O | 10.5 µM
COc1ccc(C(=O)Nc2cc(Cl)cc(Cl)c2)cc1[N+](=O)[O-] | 7.08 µM
COc1ccc(/C=C2/SC(N3CCCCC3)=NC2=O)cc1OC | 11.5 µM
O=C(Nc1cc(Cl)cc(Cl)c1)c1ccccc1[N+](=O)[O-] | 6.17 µM
COC(=O)c1c(NC(=O)c2ccccc2[N+](=O)[O-])sc2c1CCC2 | 1.82 µM
CCOc1ccc(/C=C2/SC(c3ccccc3)=NC2=O)cc1C | 10 µM
O=C(Nc1cc(Cl)c(Cl)cc1Cl)c1ccccc1[N+](=O)[O-] | 12 µM
COc1ccc(/C=C2/SC(N3CCCC3)=NC2=O)cc1OC | 7.24 µM
